The text below walks through data of US8673306B2, “Compositions and methods of use for antibodies of dickkopf-1” (Novartis AG, priority 2006, dated 2014).

The subject of assay [1] is C3H10T1/2 (10T1/2) cells. The assay is described as follows: Wnt-mediated osteoblast differentiation / alkaline phosphatase secretion of C3H10T1/2 cells. The class given is cell-based, mouse. Conditions: Wnt3A conditioned medium. An excerpt: Upon osteoblast differentiation the 10T1/2 cells secrete alkaline phosphatase (AP), a phenomena which can be inhibited by DKK1.

The target in assay [2] is T1, DKK1/LRP6 binding on cell surface (Homo sapiens, UniProt O94907).
T1 construct: made in house; LRP6 and MESD transiently transfected into HEK293T
T1 sequence (O94907 32-266): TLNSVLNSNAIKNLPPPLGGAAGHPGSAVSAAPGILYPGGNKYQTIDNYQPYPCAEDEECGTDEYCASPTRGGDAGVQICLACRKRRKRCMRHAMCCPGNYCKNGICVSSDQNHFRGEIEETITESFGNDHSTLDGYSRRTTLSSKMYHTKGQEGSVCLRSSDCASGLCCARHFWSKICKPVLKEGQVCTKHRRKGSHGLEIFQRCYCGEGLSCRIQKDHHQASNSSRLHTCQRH
The assay is described as follows: DKK1-GFP binding to LRP6 on HEK293T cell surface, fluorescence microscopy. It counts as cell-based. Conditions: HEK293T transfected with LRP6 and MESD. As for the experimental part:
However, upon co-transfection of LRP6 with a surface trafficking chaperone protein, MESD, GFP-tagged DKK1 can be detected on the cell surface, illustrating the specific nature of the DKK1/LRP6 interaction.
The ability of MOR04910 to inhibit DKK1/LRP6 binding on cell surface is measured by fluorescence microscopy. HEK293T cells are either mock transfected and transiently transfected with plasmids encoding LRP6 and MESD. Cells are incubated with DKK1-GFP conditioned medium together with anti-lysozyme FAb or anti-DKK1 FAb MOR04910 for 1 hour at 37° C., and examined by fluorescence microscopy. GFP fluorescence reflects DKK1-GFP binding to overexpressed LRP6 on the plasma membrane.

The target of assay [3] is DKK3 (Homo sapiens, UniProt Q9UBP4). The assay is described as follows: Biacore T100 binding to human DKK3. In general terms: Surface plasmon resonance follows binding to a sensor surface in real time, without labels.
DKK3, sequence (Q9UBP4 22-350): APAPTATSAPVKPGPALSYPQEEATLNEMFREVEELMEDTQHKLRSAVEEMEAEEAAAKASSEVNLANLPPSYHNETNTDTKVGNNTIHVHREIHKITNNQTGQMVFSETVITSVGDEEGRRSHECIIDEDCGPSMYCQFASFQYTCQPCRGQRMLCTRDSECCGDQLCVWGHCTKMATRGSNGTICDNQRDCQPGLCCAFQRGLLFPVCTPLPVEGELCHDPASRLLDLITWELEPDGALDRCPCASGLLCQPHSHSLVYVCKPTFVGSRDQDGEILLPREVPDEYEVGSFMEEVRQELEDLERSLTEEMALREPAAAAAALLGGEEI
The subject of assay [4] is PC3M2AC6 xenografts. Description: Intratibial growth of PC3M2AC6 xenografts in mice. It counts as in vivo, mouse. The conditions noted are these: i.v., 3 times a week for 2 weeks. As for the experimental part: An osteolytic prostate tumor model is adapted from a method by [Kim 2003]. A variant of the osteolytic prostate tumor cell line (PC3M) that stably expresses luciferase (PC3M2AC6) is injected into the tibia of mice. The growth of the tumor is monitored by luciferase while changes in bone are monitored by micro-computerized tomography (micro-CT) and histology.
Control IgG is administered i.v., at 200 μg/mouse/day, q.d., 3 times a week for 2 weeks. Vehicle control (PBS) is administered i.v., q.d., 3 times a week for 2 weeks. Final efficacy data and body weight change are calculated after treatment.

The test system of assay [5] is N-linked deglycosylated rhDKK1. The assay is described as follows: ELISA binding to N-linked deglycosylated rhDKK1. The conditions noted are these: PNGase F treated rhDKK1, relative to WT. Also noted: species or system human.
Assay [6] deals with T2, DKK2 (Homo sapiens, UniProt Q9UBU2).
T2 sequence (Q9UBU2 34-259): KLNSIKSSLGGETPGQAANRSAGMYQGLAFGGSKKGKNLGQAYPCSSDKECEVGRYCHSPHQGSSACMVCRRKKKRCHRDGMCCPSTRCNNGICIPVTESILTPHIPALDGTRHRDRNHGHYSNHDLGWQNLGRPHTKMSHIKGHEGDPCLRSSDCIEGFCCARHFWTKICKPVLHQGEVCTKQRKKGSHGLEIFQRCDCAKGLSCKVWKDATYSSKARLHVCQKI
The assay is described as follows: Binding to human DKK2 (preliminary immunoprecipitation). An excerpt: Of note, neither DKK2 nor DKK4 conserve the Asparagine residue that is predicted to be targeted for glycosylation in the Cys-2 domain of DKK1.

The test system of assay [7] is tumor cell lines. Description: Survival and proliferation of cancer cell lines (Cell Titer Glo). Conditions: 100 μg/ml, three days, three serum concentrations. The class given is cell-based. As for the experimental part: This assay is carried out in three different serum concentrations (serum free, minimal growth, and complete growth). […] Cell line supernants are analyzed for DKK1 expression by ELISA.
On the technique in general: Cellular ATP, detected with luciferase, serves as a proxy for viable cell number.

The test system of assay [8] is DKK1 (N-degly). The assay is described as follows: Biacore T100 SPR with N-DEGLY DKK1. The class given is binding, human.
Assay [9] concerns the target T3, rhDKK1 (recombinant human DKK1) (Homo sapiens, UniProt O94907).
T3 construct: host or cells: HEK / HEK293
T3 sequence (O94907 32-266): T1 sequence (O94907 32-266)
The assay is described as follows: Biacore T100 SPR of captured antibody with rhDKK1. It counts as binding. The conditions noted are these: WT DKK1. As for the experimental part:
FIG. 6. METHODS: The binding affinity and kinetics of lead candidates and rhDKK1 (recombinant human DKK1) (Batch BTP7757) are measured using surface plasmon resonance with a Biacore T100 (Biacore, Uppsala, Sweden) instrument containing a CM5 (S) sensor chip (Cat#BR-1006-68). Anti-Human IgG1 Fc (Jackson Immuno Research, Cat#109-006-098) is immobilized onto each flow cell, followed by capture of a lead candidate at an expected capture of about 100 RU. Finally, six concentrations of DKK1 (range 0.195-6.25 nM), with one repeat concentration, is run over the chip. Flow cells are activated for binding of DKK1 for 240 seconds, and disassociation is followed for 30 minutes. The normalized data (background subtracted) are fit to a 1:1 binding with mass transport model using Kinetics analysis in BIA evaluation 1.0 software. This experiment is carried out in triplicate, and data presented are the average of these three experiments with standard deviation.

Assay [10] relates to tumor and sham implanted tibias. The assay is described as follows: Bone effects in tumor-induced osteolytic model (micro-CT, histology). The class given is in vivo, mouse. As for the experimental part: An osteolytic prostate tumor model is adapted from a method by [Kim 2003]. A variant of the osteolytic prostate tumor cell line (PC3M) that stably expresses luciferase (PC3M2AC6) is injected into the tibia of mice. The growth of the tumor is monitored by luciferase while changes in bone are monitored by micro-computerized tomography (micro-CT) and histology. […] Cortical damage is scored from 0=no damage to 3=severe damage. FIG. 12B. Cortical damage in tumor-implanted tibias is manually scored by microCT analysis that are blinded with respect to the study groups. No cortical damage is observed in any of the sham implanted legs. Methods: Female nude mice at age of 12 weeks old are implanted intatibially with 2×10^5 PC-3M2AC6 cells in the left tibia and sham-injection in the right tibia. Treatments started on day 5 post implantation. […] Vehicle (PBS) control is also administered q.d., 3 times a week for 2 weeks. Animals are scanned at day 7, 14, and 18 post tumor implantation using the μ-CT VivaCT40 Scanner (SCANCO, Switzerland). Trabecular bone density (BV/TV) is analyzed as described in methods. An asterisks (*) indicates statistical significant difference from both vehicle and IgG controls (n=12) at the same time point at p<0.05. In FIG. 13, to determine the bone mass, the secondary spongiosa of the tibia is imaged with the Zeiss Imager Z.1 and Axiovision software based on Giemsa stain. The readout is based on the percent calcified bone in the entire field. Every column represents the mean and standard deviation of the stated number of animals. In the PBS, IgG, and anti-DKK1/4 antibody treated groups, only animals with tumor are analyzed. […] Statistic: Dunnett Multiple Comparisons Test One-Way ANOVA. Left legs or right legs compared to the respective leg in the PBS group p<0.05*, p<0.01**, p>0.05 n.s. […] Trabecular bone density (BV/TV) is analyzed as described in methods. * indicates statistical significant difference from all controls including, vehicle, IgG, drill only, and naïve animals at the same time point at p<0.05.

For assay [11], the system named is subcutaneous PC3M2AC6 xenografts. The assay is described as follows: Subcutaneous PC3M2AC6 xenografts in mice. Conditions: mouse, in vivo, sc.

Entries after “also recorded” stand apart in the source; their conditions may differ.

Consider “anti-DKK1/4 antibody: neutralizing anti-DKK1/4 antibody sharing the same variable regions as MOR04910 (4910 chains SEQ ID NO: 111/115, BHQ880)”, for which the “reversal of DKK1 inhibited alkaline phosphatase secretion” value in assay [1] is “blocks DKK1 suppression of 10T1/2 differentiation”. Moreover, the “inhibition of DKK1/LRP6 binding on cell surface” value in [2] is on record as “blocks DKK1 interactions with LRP6 on cell surfaces”. The “binding to DKK3” value in assay [3] was “does not bind DKK3”. In addition, the “effect on intratibial tumor growth” value in assay [4] is recorded as “trended toward inhibition of tumor growth”. In addition, in assay [5], the “Percent Binding, DKK1 (dyglycosylated)” value is on record as 12-18%. Besides, in [6], the “binding to DKK2” value is “does not specifically bind DKK2; also recorded: no significant binding to DKK2”. The “effect on survival and proliferation of cancer cell lines” value in [7] is “No significant changes”. In assay [8], the “Ka” value is 1.424e+06 M⁻¹ s⁻¹ and the “Kd” value was 0.0003071 s⁻¹. Also, in assay [9], the “Ka” value is 7.449e+06 M⁻¹ s⁻¹ and the “Kd” value was determined as 2.319e-05 s⁻¹. Besides, in assay [10] (mouse, in vivo), the “anti-osteolytic activity compared with Zometa” value is recorded as “equivalent anti-osteolytic activity as Zometa” and the “tumor-induced cortical bone damage” value is recorded as “inhibits tumor-induced cortical bone damage”. Further, the “production of bone / bone volume” value in assay [10] (tumor and sham implanted tibias) is “increases the production of bone in both tumor and sham implanted tibias”. Also, the “effect on subcutaneous xenograft growth” value in [11] was “non-significant trend toward inhibition”.
